In paper PMC11306024, “Novel metabolite madeirone and neomarinone extracted from Streptomyces aculeoletus as marine antibiofilm and antifouling agents” (Frontiers in Chemistry, 2024):

What was measured:
C. marina = assay: Antibacterial activity (growth inhibition, OD600); assay type: cell-based, Cobetia marina DSM 4741; settings: 24 h; for inhibition at 15.6 µg/mL: 15.60 µg/mL
Procedure: (§1) To assess antimicrofouling activity, we selected five marine bacterial species as models: Marinobacter hydrocarbonoclasticus DSM 8798 (ATCC 49840), C. marina DSM 4741, Phaeobacter inhibens DSM 17,395, Pseusooceanicola batsensis DSM 15,984, and Micrococcus luteus DSM 20030 (ATCC 4698) ([Michael et al., 2016]). These strains, sourced from DSMZ (Leibniz Institute DSMZ—German Collection of Microorganisms and Cell Cultures), were cultured in liquid marine broth (Carl Roth GmbH, Karlsruhe, Germany) with agitation at 180 rpm or on agar-supplemented marine broth. Incubation temperatures were set at 28°C for M. hydrocarbonoclasticus and Cobetia marina, 30°C for P. inhibens and P. batsensis, while M. luteus was maintained at 37°C in Brain Heart Infusion broth (BHI, Becton Dickinson, GmbH, Heidelberg, Germany) under similar agitation conditions.
The antibacterial efficacy of compounds (1) and (2) was assessed in 96-well polystyrene flat-bottom microplates (Nunclon Delta Surface, Thermo Scientific, Roskilde, Denmark) following established procedures ([Bauermeister et al., 2019]). In the initial screening, bacterial overnight cultures were diluted to an optical density (OD600nm) of 0.2 and incubated statically at appropriate temperatures. The cultures were treated with the following final concentrations per well: 31.25, 15.60, 7.81, 3.91, 1.95, and 0.98 μg/mL (2-fold serial dilutions) of the compounds, solubilized in DMSO, or left untreated. After 24 h (M. hydrocarbonoclasticus, C. marina) or 48 h (P. batsensis, P. inhibens, M. luteus) incubation, optical density at 600 nm (OD600) was measured using a Molecular Devices Spectra Max 190. Growth inhibition percentages were calculated relatively to untreated bacterial species, using DMSO as a negative control. CuSO4 (0.16 μg/mL), a recognized antifouling agent, was used as positive control. All assays were conducted in triplicate, and the results represent the mean and standard error of the mean (SEM). Statistical analysis was carried out using GraphPad Prism 8.0.2 (San Diego, CA, United States), employing one-way ANOVA followed by Dunnett’s multiple comparisons test against the negative control.

P. inhibens = assay: Antibiofilm activity (inhibition of biofilm formation); assay type: cell-based, Phaeobacter inhibens DSM 17395; settings: for Biofilm inhibition, up to (highest over tested concentrations) P. inhibens: 0.98-31.25 µg/mL tested; for inhibition at 15.6 µg/mL: 15.60 µg/mL
Procedure: as §1
(§2) The antibiofilm potential of compounds (1) and (2) against the five marine bacterial species was investigated in 96-well polystyrene flat-bottom microplates (Nunclon Delta Surface, Thermo Scientific, Roskilde, Denmark), as described previously ([Bauermeister et al., 2019]; [Pereira et al., 2020]). In the initial screening, bacterial overnight cultures were diluted to an OD600 of 0.2 and incubated statically at appropriate temperatures. The cultures were tested at 31.25, 15.60, 7.81, 3.91, 1.95, 0.98 μg/mL concentrations (2-fold serial dilutions) of compounds (1) and (2), solubilized in DMSO, or left untreated. After 24 h (M. hydrocarbonoclasticus, C. marina) or 48 h (P. batsensis, P. inhibens, M. luteus) incubation, OD600 was measured. The planktonic cells and media were discarded, and the wells were washed twice with deionized water. Biofilms were fixed, stained, and quantified by measuring the OD600 after solubilization with acetic acid. Biofilm inhibition percentages were calculated relative to untreated bacterial species, using DMSO as a negative control and CuSO4 (0.16 μg/mL), as a positive control. All assays were performed in triplicate, and the results represent the mean and standard error of the mean (SEM). Statistical analysis was conducted using GraphPad Prism 8.0.2, employing one-way ANOVA followed by Dunnett’s multiple comparisons test against the negative control.

Aliivibrio fischeri = assay: Inhibition of bioluminescence (ISO 11348-3 micro adaptation); assay type: cell-based; settings: Aliivibrio fischeri
Procedure: (§3) The in vivo evaluation of compounds (1) and (2) for acute toxicity was performed towards marine bacterium Aliivibrio fischeri, and planktonic crustacean Daphnia magna. The chronic ecotoxicity tests were evaluated using algae Pseudokirchneriella subcapitata and Phaeodactylum tricornutum.
The inhibition of bioluminescence of the marine bacterium A. fischeri, were studied following a micro adaptation of the standard procedure ISO 11348-3 (“Water Quality-Determination of the inhibitory effect of water samples on the light emission of Vibrio fischeri - Luminescent bacteria test–using freeze-dried bacteria method”). Briefly, frozen lyophilized bacterial cells (Abraxis, Warminster, PA, United States) were reconstituted in Reconstitution Solution, supplied by the manufacturer of the Abratox kit (Abraxis). Madeirone (1) and neomarinone (2) were dissolved in DMSO and tested at the concentrations of 100, 50, 25, 12.5, 6.25, 3.13, and 1.56 μg/mL. The emitted luminescence was measured using a luminometer at time 0 min and at different exposure times (5, 15 and 30 min) and the percentage of inhibition of bioluminescence was determined. Each experiment was performed in duplicate and the results of three independent experiments with <10% SD are presented. Phenol was used as a positive control.

M. hydrocarbonoclasticus = assay: Antibiofilm activity (inhibition of biofilm formation); assay type: cell-based, Marinobacter hydrocarbonoclasticus DSM 8798; settings: for Biofilm inhibition, up to (highest over tested concentrations) M. hydrocarbonoclasticus: 0.98-31.25 µg/mL tested; for inhibition at 15.6 µg/mL: 15.60 µg/mL
Procedure: as §1, §2

[1] = test system: Phaeodactylum tricornutum; assay: Algal growth inhibition test (OECD 201, ISO-10253); assay type: cell-based
Procedure: as §3
Freshwater and marine algal growth inhibition was assessed using P. subcapitata and P. tricornutum according to OECD Guideline 201 procedures (“Alga, Growth Inhibition Test”), ISO-8692 (“Water quality–Fresh water algal growth inhibition test with unicellular green algae”) and ISO-10253. Briefly, the algae cells were de-immobilized from algal beads using Matrix dissolving medium (Microbiotests), according to the manufacturer’s instructions, and grown in flasks containing algal culturing medium which was prepared following the OECD Guideline 201 and ISO-8692. Flasks with algae were kept for 7 days under light with orbital agitation. When the algae culture had sufficient cells, as verified by the optical density at 670 nm, these were tested at an initial cell density of 1 × 10^6 cells/mL in algal culturing medium. Madeirone (1) and neomarinone (2) were dissolved in DMSO and tested at the concentrations of 100, 50, 25, 12.5, 6.25, 3.13, and 1.56 μg/mL. The algae were cultured in microplates in triplicate and were kept for 4 days under light with orbital agitation. […] Each experiment was performed in triplicate and the results of two independent experiments with <10% SD are presented. Growth inhibition calculations were performed using cell numbers (biomass), as determined by a calibration line. Potassium dichromate (K2Cr2O7) was used as a positive control.

Compound | inhibition at 7.81 µg/mL (C. marina; Cobetia marina) | inhibition at 15.6 µg/mL (C. marina; Cobetia marina) | inhibition at 31.25 µg/mL (C. marina; Cobetia marina) | Biofilm inhibition (%) P. inhibens (P. inhibens; 0.98 µg/mL, 48 h) | Biofilm inhibition (%) P. inhibens (P. inhibens; 1.95 µg/mL, 48 h) | Biofilm inhibition, up to (highest over tested concentrations) P. inhibens (P. inhibens) | inhibition at 7.81 µg/mL (P. inhibens; Phaeobacter inhibens, 48 h) | inhibition at 15.6 µg/mL (P. inhibens; Phaeobacter inhibens, 48 h) | inhibition at 31.25 µg/mL (P. inhibens; Phaeobacter inhibens, 48 h) | Inhibition (%) A. fischeri (bioluminescence) (Aliivibrio fischeri; 50 µg/mL) | Inhibition (%) A. fischeri (bioluminescence) (Aliivibrio fischeri; 100 µg/mL) | Biofilm inhibition, up to (highest over tested concentrations) M. hydrocarbonoclasticus (M. hydrocarbonoclasticus) | inhibition at 7.81 µg/mL (M. hydrocarbonoclasticus; Marinobacter nauticus, 24 h) | inhibition at 15.6 µg/mL (M. hydrocarbonoclasticus; Marinobacter nauticus, 24 h) | inhibition at 31.25 µg/mL (M. hydrocarbonoclasticus; Marinobacter nauticus, 24 h) | Inhibition (%) P. tricornutum (growth) ([1]; 25 µg/mL) | Inhibition (%) P. tricornutum (growth) ([1]; 50 µg/mL) | Inhibition (%) P. tricornutum (growth) ([1]; 100 µg/mL) | also measured
CC1=CCC[C@@H](C)[C@]1(C)CC[C@@]1(C)c2c(O)cc3c(c2O[C@@H]1C)C(=O)C(C)=C(O)C3=O [compound 2, neomarinone] | 9.2 ± 2.1% | 7.2 ± 2.9% | 1.1 ± 2% | N.I. | N.I. | up to 41% | 11.6 ± 1.8% | 30 ± 0.6% | 41.3 ± 0.9% | 25.0% | 37.3% | ≤ 56% | 54.4 ± 1.8% | 56.7 ± 1.5% | 29 ± 10.1% | 38.5% | 40.8% | 77.7% | inhibition at 0.98 µg/mL (C. marina; Cobetia marina, 0.98 µg/mL): 10.7 ± 2.2%; inhibition at 1.95 µg/mL (C. marina; Cobetia marina, 1.95 µg/mL): 10.8 ± 3.1%; inhibition at 3.91 µg/mL (C. marina; Cobetia marina, 3.91 µg/mL): 6.5 ± 1.2%; Biofilm inhibition (%) P. inhibens (P. inhibens; 3.91 µg/mL, 48 h): N.I.; inhibition at 0.98 µg/mL (M. hydrocarbonoclasticus; Marinobacter nauticus, 0.98 µg/mL, 24 h): 49.2 ± 6.2%; inhibition at 1.95 µg/mL (M. hydrocarbonoclasticus; Marinobacter nauticus, 1.95 µg/mL, 24 h): 58.1 ± 1.6%; inhibition at 3.91 µg/mL (M. hydrocarbonoclasticus; Marinobacter nauticus, 3.91 µg/mL, 24 h): 54.5 ± 3.6%; Inhibition (%) P. tricornutum (growth) ([1]; 12.5 µg/mL): 26.5%
CC1=CCC[C@@H](C)[C@]1(C)CC[C@@]1(C)c2c(O)cc3c(c2O[C@@H]1C)C(=O)C=C(CO)C3=O (relative stereo) [compound 1, madeirone] | 10 ± 2.1% | 7.7 ± 4% | 12.7 ± 2.7% | N.I. | N.I. | up to 66% | 33.9 ± 1.3% | 53 ± 1% | 66.7 ± 0.3% | 15.1% | 49.2% | up to 60% | 14.2 ± 3.6% | 33.9 ± 2.1% | 60.1 ± 0.5% | 45.7% | 58.0% | 86.9% | Growth inhibition (%) C. marina (C. marina; 0.98 µg/mL): N.I.; Growth inhibition (%) C. marina (C. marina; 1.95 µg/mL): N.I.; Growth inhibition (%) C. marina (C. marina; 3.91 µg/mL): N.I.; inhibition at 3.91 µg/mL (P. inhibens; Phaeobacter inhibens, 3.91 µg/mL, 48 h): 10.2 ± 3.7%; Biofilm inhibition (%) M. hydrocarbonoclasticus (M. hydrocarbonoclasticus; 0.98 µg/mL, 24 h): N.I.; Biofilm inhibition (%) M. hydrocarbonoclasticus (M. hydrocarbonoclasticus; 1.95 µg/mL, 24 h): N.I.; Biofilm inhibition (%) M. hydrocarbonoclasticus (M. hydrocarbonoclasticus; 3.91 µg/mL, 24 h): N.I.
